# Source: US7189751B2, “Oxa(thia)zolidine compounds, process for preparation thereof and anti-inflammatory agents” (Nippon Soda Co., Ltd., priority 2001, dated 2007)
# Target: T1, IV-cPLA(2) in activated U937 cells (Homo sapiens, UniProt P47712)
# T1 sequence (P47712 1-749): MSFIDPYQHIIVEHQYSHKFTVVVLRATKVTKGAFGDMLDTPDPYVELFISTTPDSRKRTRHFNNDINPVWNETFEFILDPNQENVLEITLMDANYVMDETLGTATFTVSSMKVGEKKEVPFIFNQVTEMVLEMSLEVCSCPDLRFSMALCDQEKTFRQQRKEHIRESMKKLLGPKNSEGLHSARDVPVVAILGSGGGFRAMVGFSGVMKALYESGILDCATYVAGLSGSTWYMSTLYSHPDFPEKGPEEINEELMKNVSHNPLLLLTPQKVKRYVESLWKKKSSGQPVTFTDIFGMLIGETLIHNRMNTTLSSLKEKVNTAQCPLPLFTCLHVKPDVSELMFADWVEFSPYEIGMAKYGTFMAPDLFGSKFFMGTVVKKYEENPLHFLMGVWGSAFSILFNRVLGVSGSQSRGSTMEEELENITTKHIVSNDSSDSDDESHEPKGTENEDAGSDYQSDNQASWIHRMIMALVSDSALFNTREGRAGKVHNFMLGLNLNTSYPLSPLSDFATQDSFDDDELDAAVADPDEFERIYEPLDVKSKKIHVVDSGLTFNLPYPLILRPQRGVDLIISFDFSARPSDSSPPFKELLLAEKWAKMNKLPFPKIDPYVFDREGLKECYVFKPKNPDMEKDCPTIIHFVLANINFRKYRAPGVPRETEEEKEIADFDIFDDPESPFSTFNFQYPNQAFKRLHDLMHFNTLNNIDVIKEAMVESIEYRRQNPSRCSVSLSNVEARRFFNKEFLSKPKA
# Assay: PLA(2) activity: hydrolysis of bis-BODIPY FL C11-PC in TPA/A23187-activated U937 cells
# Format: cell-based
# Conditions: U-937; Concentration 10 μM; inflammatory activated PLA(2) activity, U937 cells
# Procedure: The PLA(2) activity was measured by quantitatively analyzing the fluorescent product of hydrolysis from 1,2-bis-(4,4-difluoro-5,7-dimethyl-4-bora-3a,4a-diaza-s-indecene-3-undecanoyl)-sn-glycero-3-phosphocholine (hereinafter referred to bis-BODIPY®FL C11-PC, Molecular probes, Inc., B-7701) using activated U937 cells (human monoblastic lymphoma cell line) by inflammatory stimulus (Meshulam, T. et al., The journal of Biological Chemistry 267 (30): 21465–21470 (1992); and Solito, E. et al., British Journal of Pharmacology 124: 1675–1683(1998).). The substrate bis-BODIPY®FL C11-PC is incorporated into cellular membranes, the proximity of the BODIPY®FL fluorophores on adjacent phospholipid acyl chains causes fluorescence self-quenching. Separation of the fluorophores upon hydrolytic cleavage of one of the acyl chains by PLA(1) or the PLA(2) results in increased fluorescence. […]
# The test compound was dissolved with DMSO at 30 mM, and the solution diluted with either DMSO or the Assay medium before addition into the reaction mixture. […] The increased fluorescence of the hydrolysis product by the enzyme was determined by measuring the fluorescence emission intensity at 535 nm with excitation at 485 nm from the top side of each plate at 37° C., using a Multi Functional Microplate Reader SPECTRA FLUOR PLUS (TECAN Austria GmbH). […]
compound,measurement,value
"CCOC(=O)C(=C1N[C@@H](C)[C@H](c2ccc(Cl)cc2)S1)[N+](=O)[O-] (relative stereo) [Compound 2-29, Trans-5-(4-chlorophenyl)-4-methyl-2-(1-ethoxycarbonyl-1-nitromethylene)-thiazolidine]",inhibition at 10 µM,99%
